Assay results reported in US10392630B2, “Plants having increased tolerance to herbicides” (BASF AGRO B.V., priority 2013, dated 2019).
Substitutions are numbered along the chain they refer to.

How the values were obtained:
Assay in all cases: biochemical
[1] = molecular target: T1, Amaranthus mutant PPO (AMARE) (Amaranthus tuberculatus, UniProt Q0NZW9, F420V/R128I)
T1 sequence (Q0NZW9 1-534 R128I/F420V): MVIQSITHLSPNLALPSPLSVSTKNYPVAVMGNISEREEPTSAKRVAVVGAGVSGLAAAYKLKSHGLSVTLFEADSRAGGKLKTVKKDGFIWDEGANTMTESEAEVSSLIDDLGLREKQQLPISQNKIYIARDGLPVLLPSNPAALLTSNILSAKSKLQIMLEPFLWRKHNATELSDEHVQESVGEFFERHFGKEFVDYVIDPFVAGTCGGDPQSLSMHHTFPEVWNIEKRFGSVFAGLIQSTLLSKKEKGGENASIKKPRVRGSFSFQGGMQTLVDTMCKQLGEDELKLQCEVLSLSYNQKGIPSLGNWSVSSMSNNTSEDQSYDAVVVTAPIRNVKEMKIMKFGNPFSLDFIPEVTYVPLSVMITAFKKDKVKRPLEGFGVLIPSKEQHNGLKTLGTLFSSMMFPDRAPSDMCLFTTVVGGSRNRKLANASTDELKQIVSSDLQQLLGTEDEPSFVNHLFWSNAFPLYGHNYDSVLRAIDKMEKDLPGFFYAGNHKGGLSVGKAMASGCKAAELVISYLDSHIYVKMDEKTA

[2] = molecular target: T2, Amaranthus mutant PPO (AMARE) (Amaranthus tuberculatus, UniProt Q0NZW9, F420I/R128I)
T2 sequence (Q0NZW9 1-534 R128I/F420I): T1 sequence (Q0NZW9 1-534 R128I/F420V) with V420I

[3] = molecular target: T3, Amaranthus mutant PPO (AMARE) (Amaranthus tuberculatus, UniProt Q0NZW9, F420V/R128L)
T3 sequence (Q0NZW9 1-534 R128L/F420V): T1 sequence (Q0NZW9 1-534 R128I/F420V) with I128L

[4] = molecular target: T4, Amaranthus mutant PPO (AMARE) (Amaranthus tuberculatus, UniProt Q0NZW9, F420L/R128A)
T4 sequence (Q0NZW9 1-534 R128A/F420L): T1 sequence (Q0NZW9 1-534 R128I/F420V) with I128A, V420L

[5] = molecular target: T5, Amaranthus mutant PPO (AMARE) (Amaranthus tuberculatus, UniProt Q0NZW7)
T5 sequence (Q0NZW7 1-533): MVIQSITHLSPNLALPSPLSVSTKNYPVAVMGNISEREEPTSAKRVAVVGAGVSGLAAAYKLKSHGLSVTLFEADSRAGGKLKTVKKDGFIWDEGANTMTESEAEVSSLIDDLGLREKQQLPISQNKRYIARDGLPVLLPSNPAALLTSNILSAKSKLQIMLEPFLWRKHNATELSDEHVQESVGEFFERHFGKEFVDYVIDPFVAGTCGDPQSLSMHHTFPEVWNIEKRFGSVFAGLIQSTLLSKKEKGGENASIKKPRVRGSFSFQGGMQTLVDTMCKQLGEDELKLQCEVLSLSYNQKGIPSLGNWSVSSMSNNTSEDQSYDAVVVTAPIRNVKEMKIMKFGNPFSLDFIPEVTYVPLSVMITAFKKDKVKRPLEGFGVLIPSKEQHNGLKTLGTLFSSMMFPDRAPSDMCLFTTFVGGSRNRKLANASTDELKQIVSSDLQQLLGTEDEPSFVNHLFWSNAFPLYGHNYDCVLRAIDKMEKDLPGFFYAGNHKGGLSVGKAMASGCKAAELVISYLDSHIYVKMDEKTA

SMILES | IC50 [1] | IC50 [2] | IC50 [3] | IC50 [4] | IC50 [5]
C#CCN1C(=O)C(F)(F)Oc2cc(F)c(-n3c(=O)n(C)c(=S)n(C)c3=O)cc21 [BAS 850H] | 424 nM | 433 nM | 1510 nM | 16.2 nM | 2.12 nM
CC(C)N(C)S(=O)(=O)NC(=O)c1cc(-n2c(=O)cc(C(F)(F)F)n(C)c2=O)c(F)cc1Cl [saflufenacil] | > 10000 nM | > 10000 nM | > 10000 nM | > 10000 nM | 1600 nM
